Assay results published in patent US10092590B2, “Composition of HMB and ATP and methods of use” (Metabolic Technologies, Inc., priority 2012, dated 2018).

Assays:
[1] = Perceived Recovery Status (PRS) scale; assay type: in vivo, human; details: over the 12-week study
Procedure: (§1) Prior to the study, participants were randomly assigned to receive either 3 g per day of HMB Free Acid (HMB) (combined with food-grade orange flavors and sweeteners), 400 mg per day of ATP (PEAK ATP®; TSI, Inc.), a combination of both 3 g of HMB and 400 mg per day of ATP, or a placebo (food-grade orange flavors and sweeteners) divided equally into three servings daily with the first serving given 30 minutes prior to exercise and the remaining two servings daily with the mid-day and evening meals. On the non-training days participants were instructed to consume one serving with each of three separate meals. The supplementation was continued daily throughout the training and testing protocols. Each serving was formulated with 1 gram of HMB free acid to account for fill and emptying variation and achieve a minimum effective dosage of 0.800 grams. This dosage would be equivalent to a 1 gram Ca-HMB dosage.
Perceived Recovery Status (PRS) scale was measured at weeks 0, 4, 8, 9, 10, and 12 to assess subjective recovery during the training phases. The PRS scale consists of values between 0-10, with 0-2 being very poorly recovered and with anticipated declines in performance, 4-6 being low to moderately recovered and expected similar performance, and 8-10 representing high perceived recovery with expected increases in performance.

creatine kinase (CK) = assay: Serum creatine kinase (muscle damage), colorimetric; assay type: in vivo, human; details: week 9 (overreaching); mean ± SEM
Procedure: as §1, with “dosage. […]” for “dosage.”
(§2) Samples were thawed one time and analyzed in duplicate for each analyte. […] All hormones were measured in the same assay on the same day to avoid compounded interassay variance. […] Serum creatine kinase (CK) was measured using colorimetric procedures at 340 nm (Diagnostics Chemicals, Oxford, Conn.). Twenty-four hour urine collections were made and 3-methylhistine was determined by previously described methods (Rathmacher et al 1992 and Wilson et al, 2013).

total testosterone = assay: Serum total testosterone, ELISA; assay type: in vivo, human; details: week 9 (overreaching); mean ± SEM
Procedure: as §1, with “dosage. […]” for “dosage.”
as §2

[2] = Body composition by dual x-ray absorptiometry (weight, lean body mass, fat); assay type: in vivo, human
cortisol = assay: Serum cortisol, ELISA; assay type: in vivo, human; details: week 9 (overreaching); mean ± SEM
Procedure: as §1, with “dosage. […]” for “dosage.”
as §2

[3] = system: skeletal muscle protein synthesis; details: acute ingestion of 2.4 grams; cited from earlier work
[4] = Skeletal muscle hypertrophy, ultrasonography quadriceps muscle thickness (VL and VI); assay type: in vivo, human; details: week 8 of study

SMILES: Nc1ncnc2c1ncn2[C@@H]1O[C@H](COP(=O)(O)OP(=O)(O)OP(=O)(O)O)[C@@H](O)[C@H]1O [ATP, Adenosine-5′-triphosphate]
- effect on PRS [1]: no main effect

SMILES: CC(C)(O)CC(=O)O [HMB-FA, β-hydroxy-β-methylbutyric acid]
- CK (creatine kinase (CK)): 288 ± 18 IU/L
- Total Testosterone (total testosterone): 752 ± 61 ng/dL
- DXA LBM ([2]; week 4 of study): 69.2 ± 2.7 kg
- DXA Fat ([2]; week 8 of study): 15.9 ± 1.5 %
- DXA LBM ([2]; week 8 of study): 71.3 ± 2.7 kg
- Cortisol (cortisol): 19.6 ± 1.1 µg/dL
- decrease in protein breakdown [3]: −56%
- increase in skeletal muscle protein synthesis [3]: +70%
- Quad (quadriceps muscle thickness) [4]: 56.0 ± 1.4 mm
